Values of other authors in PubChem BioAssay AID1259409 (Chemical Carcinogenesis Research Information System (CCRIS), 2018).

Tested on: rodent chemically induced tumor inhibition, incidence and multiplicity
Assay: CCRIS tumor inhibitor studies
Details: Carcinogen: BETA-PROPIOLACTONE, 57-57-8, Promoter: NONE USED

O=S(=O)(O)c1ccc(S)cc1
tumour outcome (control, treated, inhibition, significance) (Dose [Inhibitor]: 40 UMOL IN 0.2 ML WATER 5 MIN PRIOR TO EACH CARCINOGEN DOSE (STUDY DURATION: 26 WK), Route [Inhibitor]: GAVAGE, Species: MOUSE, Strain/Sex: STRAIN-A/FEMALE, Target Tissue: Type of Lesion: FORESTOMACH: PAPILLOMA, Dose [Carcinogen]: 28 UMOL IN 0.1 ML WATER 2/WK FOR 10 WK): 100%, 57%, 43%, p<0.001 | tumour outcome (control, treated, inhibition, significance) (Dose [Inhibitor]: 70 UMOL IN 0.2 ML WATER BEGINNING 5 MIN PRIOR TO EACH CARCINOGEN DOSE (STUDY DURATION: 50 WK), Route [Inhibitor]: INTRARECTAL, Species: RAT, Strain/Sex: F344/MALE, Target Tissue: Type of Lesion: LARGE INTESTINE: ADENOMATOUS POLYP, Dose [Carcinogen]: 35 UMOL IN 0.1 ML PROPYLENE GLYCOL 2/WK FOR 6 WK): 100%, 21%, 79%, p<0.001
